The record followed here is ChEMBL document CHEMBL5126531, “NAE modulators: A potential therapy for gastric carcinoma” (Eur J Med Chem, 2022).

By IC50 is commonly meant the midpoint of a concentration-inhibition curve.

Series [1] addresses T1, SUMO-activating enzyme (Homo sapiens, UniProt Q9UBT2). The experiment in a line: Inhibition of recombinant human SAE1/UBA2 expressed in Escherichia coli assessed as reduction in transfer of […] to UBE2I enzyme.
A further series deals with CCRF-CEM. The experiment in a line: Antiproliferative activity against human CCRF-CEM assessed as net growth rate at <1 uM […] by CellTiter-Glo assay relative to control. Type of series: functional. (In ATP-based viability assays light output follows the ATP content of the culture.)
A short description of series [2]: Toxicity in SCID mouse xenografted with human TMD8 cells expressing luciferase gene assessed as survival days at 100 mg/kg/day, iv administered at 1 to 21 days cycle for 8 cycles. The note with it: in vivo, time 1-21 day. The class given is organism-based. A general note: A xenograft is tissue or cells of one species grown in another, often human tumour cells in immunodeficient mice.

For series [3], the target named is T2, Ubiquitin-like modifier-activating enzyme 1 (Homo sapiens, UniProt P22314).
T2 sequence (P22314 whole entry): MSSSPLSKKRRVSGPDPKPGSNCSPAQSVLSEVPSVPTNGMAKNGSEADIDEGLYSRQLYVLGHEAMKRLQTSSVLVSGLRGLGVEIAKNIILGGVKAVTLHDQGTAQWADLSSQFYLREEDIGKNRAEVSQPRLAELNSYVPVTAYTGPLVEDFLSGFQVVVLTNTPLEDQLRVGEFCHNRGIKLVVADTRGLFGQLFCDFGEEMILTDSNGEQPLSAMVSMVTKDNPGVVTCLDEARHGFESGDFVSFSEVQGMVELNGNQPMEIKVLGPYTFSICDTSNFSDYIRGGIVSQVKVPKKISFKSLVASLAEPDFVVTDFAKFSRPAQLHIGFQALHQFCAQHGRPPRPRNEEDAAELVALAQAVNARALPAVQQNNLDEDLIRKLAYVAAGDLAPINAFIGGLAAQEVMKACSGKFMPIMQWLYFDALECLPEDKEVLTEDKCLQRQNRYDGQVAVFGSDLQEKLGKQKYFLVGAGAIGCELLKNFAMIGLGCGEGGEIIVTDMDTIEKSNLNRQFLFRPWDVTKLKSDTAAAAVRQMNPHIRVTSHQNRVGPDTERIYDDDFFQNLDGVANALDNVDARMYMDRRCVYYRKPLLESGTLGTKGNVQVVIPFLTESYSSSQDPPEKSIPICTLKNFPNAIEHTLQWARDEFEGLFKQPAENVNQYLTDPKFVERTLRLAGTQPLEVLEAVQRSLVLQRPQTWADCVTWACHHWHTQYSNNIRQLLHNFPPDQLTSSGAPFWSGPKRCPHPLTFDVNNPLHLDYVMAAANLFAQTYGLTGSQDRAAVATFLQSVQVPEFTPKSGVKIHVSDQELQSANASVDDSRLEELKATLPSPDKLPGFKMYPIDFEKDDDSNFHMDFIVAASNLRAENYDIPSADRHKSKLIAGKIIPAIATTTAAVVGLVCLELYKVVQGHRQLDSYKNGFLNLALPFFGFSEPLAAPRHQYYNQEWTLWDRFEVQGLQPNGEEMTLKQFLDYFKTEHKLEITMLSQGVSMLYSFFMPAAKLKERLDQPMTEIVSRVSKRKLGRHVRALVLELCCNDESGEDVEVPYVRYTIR
The experiment in a line: Inhibition of recombinant C-terminal His-tagged human full length UAE1 expressed in Escherichia coli BL21 (lambdaDE3) assessed as reduction in transfer of Ub to UBE2C enzyme.

The next series has as its target T3, NEDD8 activating enzyme (Homo sapiens, UniProt Q8TBC4).
T3 sequence (Q8TBC4 whole entry): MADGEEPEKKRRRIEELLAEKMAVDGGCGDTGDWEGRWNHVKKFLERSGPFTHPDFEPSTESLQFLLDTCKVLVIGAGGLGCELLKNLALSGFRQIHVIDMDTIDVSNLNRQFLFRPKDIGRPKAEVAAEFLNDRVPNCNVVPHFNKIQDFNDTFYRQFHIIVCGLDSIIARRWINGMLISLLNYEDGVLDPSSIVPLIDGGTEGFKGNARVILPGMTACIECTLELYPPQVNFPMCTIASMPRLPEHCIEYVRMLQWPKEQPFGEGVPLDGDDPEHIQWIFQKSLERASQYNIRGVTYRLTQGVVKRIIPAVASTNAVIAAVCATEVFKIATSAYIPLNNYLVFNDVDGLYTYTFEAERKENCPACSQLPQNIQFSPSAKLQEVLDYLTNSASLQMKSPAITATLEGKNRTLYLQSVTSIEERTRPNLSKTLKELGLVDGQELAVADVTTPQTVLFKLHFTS
T3 sequence (Q13564 whole entry): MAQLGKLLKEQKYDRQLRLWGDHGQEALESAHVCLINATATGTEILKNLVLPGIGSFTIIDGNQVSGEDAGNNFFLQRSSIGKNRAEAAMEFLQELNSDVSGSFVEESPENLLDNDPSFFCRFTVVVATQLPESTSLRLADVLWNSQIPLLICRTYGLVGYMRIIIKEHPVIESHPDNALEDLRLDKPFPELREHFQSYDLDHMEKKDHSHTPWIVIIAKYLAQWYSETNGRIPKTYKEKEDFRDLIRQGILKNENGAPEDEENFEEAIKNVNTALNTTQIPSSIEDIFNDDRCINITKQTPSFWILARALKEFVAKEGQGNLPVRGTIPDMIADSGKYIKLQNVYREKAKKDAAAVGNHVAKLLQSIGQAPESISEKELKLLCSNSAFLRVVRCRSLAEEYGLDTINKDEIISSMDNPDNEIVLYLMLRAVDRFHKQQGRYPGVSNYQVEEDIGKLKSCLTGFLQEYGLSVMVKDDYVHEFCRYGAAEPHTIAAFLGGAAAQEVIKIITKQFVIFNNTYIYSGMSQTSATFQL
The experiment in a line: Inhibition of recombinant human APPBP1/UBA3 expressed in Escherichia coli assessed as Ub/Ubl thioester transfer.

The target in series [4] is T4, NEDD8-activating enzyme E1 regulatory subunit (Homo sapiens, UniProt Q13564).
T4 sequence (Q13564 whole entry): T3 sequence (Q13564 whole entry)
In words: Inhibition of NAE (unknown origin).

The target in series [5] is T2, Ubiquitin-like modifier-activating enzyme 1. In words: Inhibition of UAE (unknown origin).
The test system of series [6] is MGC-803. In words: Induction of apoptosis in human MGC-803 cells assessed as total apoptotic cells at 0.5 micromol/L incubated for 48 hrs by Annexin V-FITC/PI staining based flow cytometric analysis (reference value: 3.2%). The class given is functional. The note with it: dose 0.5 µmol/L, at 0.5 µM. A general note: Flow cytometry measures light scatter and fluorescence of single cells or particles in a stream.

The test system of series [7] is MGC-803. In words: Induction of apoptosis in human MGC-803 cells assessed as total apoptotic cells at 1 micromol/L incubated for 48 hrs by Annexin V-FITC/PI staining based flow cytometric analysis (reference value: 3.2%). Type of series: functional. The following applies: dose 1 µmol/L, at 1 µM.
Series [8] has as its system MGC-803. In words: Antiproliferative activity against human MGC-803 cells assessed as inhibition of cell growth incubated for 48 hrs by MTT assay. Type of series: functional, cell-based. The note with it: MGC-803, 48 h.
Series [9] relates to MGC-803. The experiment in a line: Induction of apoptosis in human MGC-803 cells assessed as total apoptotic cells at 2 micromol/L incubated for 48 hrs by Annexin V-FITC/PI staining based flow cytometric analysis (reference value: 3.2%). The class given is functional. The note with it: dose 2 µmol/L, at 2 µM.
Series [10] deals with T5, NEDD8-conjugating enzyme Ubc12 (Homo sapiens, UniProt P61081).
T5 sequence (P61081 whole entry): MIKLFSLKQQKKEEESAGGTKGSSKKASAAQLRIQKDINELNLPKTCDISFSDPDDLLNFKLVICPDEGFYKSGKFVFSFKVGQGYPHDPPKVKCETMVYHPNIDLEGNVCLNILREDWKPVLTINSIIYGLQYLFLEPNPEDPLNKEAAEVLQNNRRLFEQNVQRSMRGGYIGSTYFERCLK
In words: Inhibition of Ubc12 (unknown origin)-neddylation incubated for 30 mins in presence of ATP by Western blot analysis.

Series [11] deals with T1, SUMO-activating enzyme. The experiment in a line: Inhibition of SAE1/UBA2 in human HCT-116 cells assessed as reduction in Ubc9-SUMO level incubated for 24 hrs by immunoblot analysis. The class given is cell-based.
In series [12] the target is T6, Ubiquitin-like modifier-activating enzyme ATG7 (Homo sapiens, UniProt O95352).
T6 sequence (O95352 whole entry): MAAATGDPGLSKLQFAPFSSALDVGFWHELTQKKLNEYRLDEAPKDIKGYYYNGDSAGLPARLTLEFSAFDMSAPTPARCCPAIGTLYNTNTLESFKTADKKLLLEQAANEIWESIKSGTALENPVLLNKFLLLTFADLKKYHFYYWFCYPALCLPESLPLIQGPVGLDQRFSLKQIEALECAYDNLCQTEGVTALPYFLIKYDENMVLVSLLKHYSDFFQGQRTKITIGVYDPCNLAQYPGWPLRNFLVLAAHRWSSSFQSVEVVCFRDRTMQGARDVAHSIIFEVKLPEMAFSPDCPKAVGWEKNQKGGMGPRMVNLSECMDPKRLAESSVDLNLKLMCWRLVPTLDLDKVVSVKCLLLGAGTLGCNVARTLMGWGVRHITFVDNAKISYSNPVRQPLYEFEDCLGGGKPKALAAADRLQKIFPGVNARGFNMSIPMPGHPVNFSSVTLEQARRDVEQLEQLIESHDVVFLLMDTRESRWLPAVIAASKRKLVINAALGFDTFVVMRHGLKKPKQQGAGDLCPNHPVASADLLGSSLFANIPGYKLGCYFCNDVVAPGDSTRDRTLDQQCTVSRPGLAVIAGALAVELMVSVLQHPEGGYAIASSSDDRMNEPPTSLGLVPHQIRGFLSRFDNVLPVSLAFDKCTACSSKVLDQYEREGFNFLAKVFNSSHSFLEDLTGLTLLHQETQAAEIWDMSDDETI
In words: Inhibition of His-tagged ATG7 (unknown origin) expressed in sf9 insect cells.

Series [13] deals with T7, Ubiquitin-like modifier-activating enzyme 6 (Homo sapiens, UniProt A0AVT1).
T7 sequence (A0AVT1 whole entry): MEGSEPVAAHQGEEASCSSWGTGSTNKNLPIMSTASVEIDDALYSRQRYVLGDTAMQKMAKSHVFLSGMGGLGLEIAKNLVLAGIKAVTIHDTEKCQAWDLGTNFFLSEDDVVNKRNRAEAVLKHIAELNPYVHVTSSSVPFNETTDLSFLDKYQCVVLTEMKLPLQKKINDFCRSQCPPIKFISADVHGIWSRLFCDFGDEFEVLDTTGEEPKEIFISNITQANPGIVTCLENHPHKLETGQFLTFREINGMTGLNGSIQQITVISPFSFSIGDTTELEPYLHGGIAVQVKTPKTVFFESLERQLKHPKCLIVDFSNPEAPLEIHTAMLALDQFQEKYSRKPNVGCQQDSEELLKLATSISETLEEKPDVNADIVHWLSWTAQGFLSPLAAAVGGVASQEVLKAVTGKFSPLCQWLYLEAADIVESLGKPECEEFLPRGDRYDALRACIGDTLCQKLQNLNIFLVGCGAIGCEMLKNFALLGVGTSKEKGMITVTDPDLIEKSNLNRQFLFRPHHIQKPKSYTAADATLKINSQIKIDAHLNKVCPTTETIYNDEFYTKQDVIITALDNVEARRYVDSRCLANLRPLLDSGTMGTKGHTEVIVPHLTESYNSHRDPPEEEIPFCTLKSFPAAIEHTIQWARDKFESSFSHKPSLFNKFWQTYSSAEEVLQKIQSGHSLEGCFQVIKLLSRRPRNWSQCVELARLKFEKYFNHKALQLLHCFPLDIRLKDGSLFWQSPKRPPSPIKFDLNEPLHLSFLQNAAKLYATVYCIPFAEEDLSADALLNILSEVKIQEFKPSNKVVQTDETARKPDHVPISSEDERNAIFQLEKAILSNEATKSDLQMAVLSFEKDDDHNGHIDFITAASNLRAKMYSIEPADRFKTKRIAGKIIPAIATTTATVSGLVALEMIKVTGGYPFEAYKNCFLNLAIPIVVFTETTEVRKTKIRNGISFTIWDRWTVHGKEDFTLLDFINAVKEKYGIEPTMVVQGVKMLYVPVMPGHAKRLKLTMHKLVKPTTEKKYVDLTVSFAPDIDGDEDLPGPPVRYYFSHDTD
In words: Inhibition of His-tagged UBA6 (unknown origin) expressed in sf9 insect cells.

T1 sequence (Q9UBE0 whole entry): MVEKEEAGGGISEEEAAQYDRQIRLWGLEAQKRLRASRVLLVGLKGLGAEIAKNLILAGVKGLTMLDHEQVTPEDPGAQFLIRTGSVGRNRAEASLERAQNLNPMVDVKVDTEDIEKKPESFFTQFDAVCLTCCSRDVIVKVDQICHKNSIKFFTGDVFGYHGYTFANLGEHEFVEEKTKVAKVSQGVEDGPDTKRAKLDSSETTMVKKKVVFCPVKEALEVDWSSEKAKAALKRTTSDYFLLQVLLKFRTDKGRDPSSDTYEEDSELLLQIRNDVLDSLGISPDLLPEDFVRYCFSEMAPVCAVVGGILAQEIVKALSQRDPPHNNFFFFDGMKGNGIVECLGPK
T1 sequence (Q9UBT2 whole entry): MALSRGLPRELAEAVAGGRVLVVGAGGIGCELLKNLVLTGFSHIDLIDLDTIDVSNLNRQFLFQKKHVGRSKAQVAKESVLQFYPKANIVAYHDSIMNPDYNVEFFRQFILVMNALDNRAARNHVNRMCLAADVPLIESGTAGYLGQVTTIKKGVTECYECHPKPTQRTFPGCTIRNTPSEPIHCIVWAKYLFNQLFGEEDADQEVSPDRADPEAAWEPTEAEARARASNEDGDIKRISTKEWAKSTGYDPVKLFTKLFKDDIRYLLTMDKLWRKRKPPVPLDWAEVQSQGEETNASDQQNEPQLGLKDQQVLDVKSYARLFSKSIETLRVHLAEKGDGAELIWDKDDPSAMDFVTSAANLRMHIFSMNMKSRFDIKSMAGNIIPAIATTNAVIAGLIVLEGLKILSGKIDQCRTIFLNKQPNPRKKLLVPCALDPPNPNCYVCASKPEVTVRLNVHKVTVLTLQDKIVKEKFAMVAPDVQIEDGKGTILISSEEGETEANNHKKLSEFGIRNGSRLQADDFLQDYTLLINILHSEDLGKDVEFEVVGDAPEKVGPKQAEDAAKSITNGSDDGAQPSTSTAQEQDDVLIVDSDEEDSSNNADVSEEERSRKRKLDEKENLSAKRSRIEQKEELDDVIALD

As for `CCOc1cccc(F)c1C#Cc1cn([C@@H]2O[C@H](CNS(N)(=O)=O)[C@@H](O)[C@H]2O)c2ncnc(N)c12`, the figures for the IC50 (on SUMO-activating enzyme [1]; in series [3]; on NEDD8 activating enzyme) were 1280 nM, 449 nM and 0.955 nM, respectively. Moreover, the Activity with CCRF-CEM amounted to 0%. Besides, the Survival in [2] is above 159 days.

Regarding `COC(=O)N1CCC2(CC1)C[C@H](Nc1ncnc3c1nnn3[C@@H]1C[C@@H](COS(N)(=O)=O)[C@@H](O)C1)c1ccccc12`, the figures for the IC50 in [4] and in series [5] were 0.5 nM and 66 nM, respectively.

As to `COc1ccc(CN(C(=O)Cn2ccc3cc(OC)ccc32)c2cc(OC)c(OC)c(OC)c2)cc1`, the Activity with MGC-803 [6] is recorded as 4.4%; in the series with MGC-803 [7], 11.1%; in the series on MGC-803 [9], 65.2%. For the same molecule, in the series with MGC-803 [8], the IC50 turned out to be 1590 nM.

Take `CC(C)=CCc1c(O)c(CC=C(C)C)c2oc3c(O)ccc(O)c3c(=O)c2c1O` [GARTANIN]: in series [10], the IC50 was 10300 nM.

Turning to `NS(=O)(=O)OC[C@@H]1C[C@@H](n2ccc3c(N[C@H]4CCc5ccccc54)ncnc32)C[C@@H]1O` [PEVONEDISTAT], the IC50 at SUMO-activating enzyme [11] was 8200 nM; in [12], above 10000 nM; in [13], 1800 nM.
